The record followed here is patent publication US8703796B2, “3H-imidazo [4, 5-B] pyridine-6-carboxamides as anti-inflammatory agents” (Boehringer Ingelheim International GmbH, priority 2008, dated 2014).

A word on the inhibition: it is the drop in the measured response relative to a control, in per cent.

The test addresses T1, recombinant human mPGES-1 (Homo sapiens, UniProt O14684).
T1 construct: made in house; host or cells: Rosetta E. coli (microsomal/membrane fraction)
T1 sequence (O14684 1-152): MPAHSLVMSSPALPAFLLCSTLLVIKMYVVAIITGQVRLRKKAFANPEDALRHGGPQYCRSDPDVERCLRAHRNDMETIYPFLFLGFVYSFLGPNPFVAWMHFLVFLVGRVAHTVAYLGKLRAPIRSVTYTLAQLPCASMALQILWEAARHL
Put plainly: mPGES-1 inhibition, HTRF detection of PGE2. The test is classed as biochemical. The gist of the method:
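Microsomes from E. coli expressing recombinant human mPGES-1 in 0.1 M KPi pH 7.4 with 2.5 mM GSH were preincubated with inhibitor 25 min at room temperature. PGH2 was then added, and the reaction was stopped after 1 min with acidified FeCl2. PGE2 was quantified by HTRF (665/620 nm ratio) against a synthetic PGE2 standard curve.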
For the compound `Cn1c(Nc2c(Cl)cncc2Cl)nc2cc(C(=O)Nc3cc(C(F)(F)F)ccn3)c(OCC(F)(F)F)nc21` [Example 852, 2-(3,5-Dichloro-pyridin-4-ylamino)-5-(2,2,2-trifluoro-ethoxy)-N-(4-trifluoromethyl-pyridin-2-yl)-3-methyl-3H-imidazo[4,5-b]pyridine-6-carboxamide], the inhibition at 10 µM amounted to 95%. On to `O=C(Nc1ccc(Br)cc1)c1cc2nc(Nc3c(F)cccc3Cl)[nH]c2nc1OCC(F)F` [Example 776, N-(4-Bromo-phenyl)-2-(2-fluoro-6-chloro-phenylamino)-5-(2,2-difluoroethoxy)-3H-imidazo[4,5-b]pyridine-6-carboxamide], for which the inhibition at 1 µM turned out to be 100%. As to `O=C(N[C@H]1CC[C@H](C(F)(F)F)CC1)c1cc2nc(Nc3cnccc3C(F)(F)F)[nH]c2nc1OCC(F)F` [Example 799, 2-(4-Trifluoromethyl-pyridin-3-ylamino)-5-(2,2-difluoro-ethoxy)-N-(trans-4-trifluoromethyl-cyclohexyl)-3H-imidazo[4,5-b]pyridine-6-carboxamide], the inhibition at 10 µM is 99%. Consider `Cn1c(Nc2c(Cl)cncc2Cl)nc2cc(C(=O)NCc3ncccc3C(F)(F)F)c(OCC(F)F)nc21` [Example 841, 2-(3,5-Dichloro-pyridin-4-ylamino)-5-(2,2-difluoro-ethoxy)-N-((3-trifluoromethyl-pyridin-2-yl)-methyl)-3-methyl-3H-imidazo[4,5-b]pyridine-6-carboxamide], for which the inhibition at 10 µM came to 99%.

On to `CCCC[C@H](C)NC(=O)c1cnc2c(c1)nc(Nc1c(Cl)cccc1Cl)n2C` [Example 527, (S)-2-(2,6-Dichlorophenylamino)-N-(hex-2-yl)-3-methyl-3H-imidazo[4,5-b]pyridine-6-carboxamide], for which the inhibition at 10 µM stood at 96%. On the same count and under the same terms, with `O=C(N[C@H]1CC[C@H](C(F)(F)F)CC1)c1cnc2[nH]c(Nc3c(Cl)cccc3Cl)nc2c1` [Example 459, 2-(2,6-Dichlorophenylamino)-N-((1r,4r)-4-trifluoromethyl-cyclohexyl)-3H-imidazo[4,5-b]pyridine-6-carboxamide] the figure was 100%; with `CCOc1nc2[nH]c(Nc3c(Cl)cncc3Cl)nc2cc1C(=O)NCC(F)(F)C(F)(F)C(F)(F)C(F)(F)F` [Example 844, 2-(3,5-Dichloro-pyridin-4-ylamino)-5-ethoxy-N-(2,2,3,3,4,4,5,5,5-nonafluoro-pentyl)-3H-imidazo[4,5-b]pyridine-6-carboxamide], 100%; with `Cc1ccnc(C)c1Nc1nc2cc(C(=O)N[C@H]3CC[C@H](C(F)(F)F)CC3)c(OCC(F)F)nc2[nH]1` [Example 794, 2-(2,4-Dimethyl-pyridin-3-ylamino)-5-(2,2-difluoro-ethoxy)-N-(trans-4-trifluoromethyl-cyclohexyl)-3H-imidazo[4,5-b]pyridine-6-carboxamide], 100%. Same read-out and setting: with `O=C(N[C@H]1CC[C@H](C(F)(F)F)CC1)c1cc2nc(Nc3cccnc3C(F)(F)F)[nH]c2nc1OCC(F)F` [Example 798, 2-(2-Trifluoromethyl-pyridin-3-ylamino)-5-(2,2-difluoro-ethoxy)-N-(trans-4-trifluoromethyl-cyclohexyl)-3H-imidazo[4,5-b]pyridine-6-carboxamide] the figure was 87%; with `CCCCCCCCNC(=O)c1cnc2c(c1)nc(Nc1c(Cl)cccc1Cl)n2C` [Example 403, 2-(2,6-Dichlorophenylamino)-3-methyl-N-octyl-3H-imidazo[4,5-b]pyridine-6-carboxamide], 100%. With `Cn1c(Nc2c(Cl)cncc2Cl)nc2cc(C(=O)Nc3ccc(Br)cc3)c(OC3CCOC3)nc21` (stereo not drawn) [Example 848, 2-(3,5-Dichloro-pyridin-4-ylamino)-5-(tetrahydrofuran-3-yl-oxy)-N-(4-bromo-phenyl)-3-methyl-3H-imidazo[4,5-b]pyridine-6-carboxamide], the inhibition at 10 µM worked out at 100%. Same read-out and setting: with `Cn1c(Nc2c(Cl)cncc2Cl)nc2cc(C(=O)NCc3ncccc3C(F)(F)F)c(OC3CCOC3)nc21` (stereo not drawn) [Example 847, 2-(3,5-Dichloro-pyridin-4-ylamino)-5-(tetrahydrofuran-3-yl-oxy)-N-((3-trifluoromethyl-pyridin-2-yl)-methyl)-3-methyl-3H-imidazo[4,5-b]pyridine-6-carboxamide] the figure was 100%; with `O=C(Nc1ccc(Cl)c(F)c1)c1cnc2[nH]c(Nc3c(Cl)cccc3Cl)nc2c1` [Example 154, 2-(2,6-Dichloro-phenylamino)-3H-imidazo[4,5-b]-pyridine-6-carboxylic acid (4-chloro-3-fluoro-phenyl)-amide], 91%. Still for that read-out and setting: with `CC1(C)CCC(NC(=O)c2cnc3[nH]c(Nc4c(F)cccc4Cl)nc3c2)CC1` [Example 466, 2-(2-Chloro-6-fluorophenylamino)-N-(4,4-dimethylcyclohexyl)-3H-imidazo[4,5-b]pyridine-6-carboxamide] the figure was 100%. The same measure, in the same setting: next, `O=C(Nc1ccc(Br)cc1)c1cc2nc(Nc3c(Cl)cncc3Cl)[nH]c2nc1OCC(F)F` [Example 804, 2-(3,5-Dichloro-pyridin-4-ylamino)-5-(2,2-difluoro-ethoxy)-N-(4-bromo-phenyl)-3H-imidazo[4,5-b]pyridine-6-carboxamide]: 98%. For `CC1(C)CCC(NC(=O)c2cnc3c(c2)nc(Nc2c(Cl)cccc2Cl)n3Cc2ccccc2)CC1` [Example 413, 3-Benzyl-2-(2,6-dichlorophenylamino)-N-(4,4-dimethylcyclohexyl)-3H-imidazo[4,5-b]pyridine-6-carboxamide], the inhibition at 10 µM came out at 100%. With `COCCOc1nc2c(cc1C(=O)N[C@H]1CC[C@H](C(F)(F)F)CC1)nc(Nc1c(Cl)cncc1Cl)n2C` [Example 868, 2-(3,5-Dichloro-pyridin-4-ylamino)-5-(2-methoxy-ethoxy)-N-(trans-4-trifluoromethyl-cyclohexyl)-3-methyl-3H-imidazo[4,5-b]pyridine-6-carboxamide], the inhibition at 10 µM was determined as 100%. Still for that read-out and setting: next, `Cn1c(Nc2c(Cl)cccc2Cl)nc2cc(C(=O)NC3CCCC(C)(C)C3)cnc21` (stereo not drawn) [Example 454, 2-(2,6-Dichlorophenylamino)-N-(3,3-dimethylcyclohexyl)-3-methyl-3H-imidazo[4,5-b]pyridine-6-carboxamide]: 99%; `Cn1c(Nc2c(Cl)cncc2Cl)nc2cc(C(=O)Nc3ccc(Br)cc3)c(OCC(F)F)nc21` [Example 837, 2-(3,5-Dichloro-pyridin-4-ylamino)-5-(2,2-difluoro-ethoxy)-N-(4-bromo-phenyl)-3-methyl-3H-imidazo[4,5-b]pyridine-6-carboxamide]: 96%; `Cn1c(Nc2c(Cl)cc(F)cc2Cl)nc2cc(C(=O)Nc3ccc(Br)cc3)c(OCC(F)(F)F)nc21` [Example 816, 2-(2,6-Dichloro-4-fluoro-phenylamino)-5-(2,2,2-trifluoro-ethoxy)-N-(4-bromo-phenyl)-3-methyl-3H-imidazo[4,5-b]pyridine-6-carboxamide]: 97%.

As for `Cn1c(Nc2c(Cl)cc(F)cc2Cl)nc2cc(C(=O)NCc3ncccc3C(F)(F)F)c(OCC(F)(F)F)nc21` [Example 813, 2-(2,6-Dichloro-4-fluoro-phenylamino)-5-(2,2,2-trifluoro-ethoxy)-N-((3-trifluoromethyl-pyridin-2-yl)-methyl)-3-methyl-3H-imidazo[4,5-b]pyridine-6-carboxamide], the inhibition at 10 µM came to 99%. Turning to `COCCOc1nc2[nH]c(Nc3c(Cl)cncc3Cl)nc2cc1C(=O)N[C@H]1CC[C@H](C(F)(F)F)CC1` [Example 866, 2-(3,5-Dichloro-pyridin-4-ylamino)-5-(2-methoxy-ethoxy)-N-(trans-4-trifluoromethyl-cyclohexyl)-3H-imidazo[4,5-b]pyridine-6-carboxamide], the inhibition at 10 µM was determined as 100%.

With `O=C(Nc1cc(C(F)(F)F)ccn1)c1cc2nc(Nc3c(Cl)cc(F)cc3Cl)[nH]c2nc1OCC(F)(F)F` [Example 819, 2-(2,6-Dichloro-4-fluoro-phenylamino)-5-(2,2,2-trifluoro-ethoxy)-N-(4-trifluoromethyl-pyridin-2-yl)-3H-imidazo[4,5-b]pyridine-6-carboxamide], the inhibition at 10 µM was 96%. The same measure, in the same setting: next, `O=C(N[C@H]1CC[C@H](C(F)(F)F)CC1)c1cc2nc(Nc3c(Cl)cncc3Cl)[nH]c2nc1OCC(F)F` [Example 862, 2-(3,5-Dichloro-pyridin-4-ylamino)-5-(2,2-difluoro-ethoxy)-N-(trans-4-trifluoromethyl-cyclohexyl)-3H-imidazo[4,5-b]pyridine-6-carboxamide]: 99%; `COCCOc1nc2c(cc1C(=O)N[C@H]1CC[C@H](C(F)(F)F)CC1)nc(Nc1c(Cl)cc(F)cc1Cl)n2C` [Example 869, 2-(2,6-Dichloro-4-fluoro-phenylamino)-5-(2-methoxy-ethoxy)-N-(trans-4-trifluoromethyl-cyclohexyl)-3-methyl-3H-imidazo[4,5-b]pyridine-6-carboxamide]: 100%; `O=C(Nc1cc(C(F)(F)F)ccn1)c1cc2nc(Nc3c(Cl)cc(F)cc3Cl)[nH]c2nc1OCC(F)F` [Example 821, 2-(2,6-Dichloro-4-fluoro-phenylamino)-5-(2,2-difluoro-ethoxy)-N-(4-trifluoromethyl-pyridin-2-yl)-3H-imidazo[4,5-b]pyridine-6-carboxamide]: 90%. On to `CC(C)(C)[C@H]1CC[C@H](NC(=O)c2cnc3[nH]c(Nc4c(Cl)cccc4Cl)nc3c2)CC1` [Example 379, N-((1r,4r)-4-tert.-Butylcyclohexyl)-2-(2,6-dichlorophenylamino)-3H-imidazo[4,5-b]pyridine-6-carboxamide], for which the inhibition at 10 µM amounted to 100%.
